From PMC4281105 (Journal of medicinal chemistry, 2014)
Like-named read-outs stand apart in the source and are kept apart here. Marks after values point to notes of the source that are not given here.

Experiments:
hRSV strain Long = assay: hRSV CPE assay; assay type: cell-based, human respiratory syncytial virus
RSV = assay: viral titer; assay type: cell-based, human respiratory syncytial virus; details: for log reduction at 10 µM: human respiratory syncytial virus, read-out: viral titer reduction at 10 µM
[1] = human respiratory syncytial virus, HEp-2, read-out: RSV CPE potency ± standard deviation EC50, HEp-2 cells, hRSV strain Long, 10-point dose response
[2] = read-out: RSV CPE potency ± standard deviation EC50, HEp-2 cells, hRSV strain Long, 10-point dose response

| EC50 (hRSV strain Long; [1]) [nM] | SMILES | log reduction at 10 µM (RSV) | other results |
| --- | --- | --- | --- |
| > 50000 | Cc1ccc(Cn2c(=O)n(Cc3ccc(C(=O)Nc4nccs4)cc3)c(=O)c3ccccc32)cc1 [Compound 41, 4-((1-(4-Methylbenzyl)-2,4-dioxo-1,2-dihydroquinazolin-3(4H)-yl)methyl)-N-(thiazol-2-yl)benzamide] | – | – |
| 2000 ± 200 | Cc1ccc(Cn2c(=O)n(Cc3ccc(C(=O)NCCCOC(C)C)cc3)c(=O)c3ccccc32)cc1 [Compound 25, N-(3-Isopropoxypropyl)-4-((1-(4-methylbenzyl)-2,4-dioxo-1,2-dihydroquinazolin-3(4H)-yl)methyl)benzamide] | – | – |
| 1900 ± 200 | CCOCCCNC(=O)c1ccc(Cn2c(=O)c3ccccc3n(Cc3ccc(C)cc3)c2=O)cc1 [Compound 24, N-(3-Ethoxypropyl)-4-((1-(4-methylbenzyl)-2,4-dioxo-1,2-dihydroquinazolin-3(4H)-yl)methyl)benzamide] | – | – |
| 500 ± 50 | COCCCNC(=O)c1ccc(Cn2c(=O)c3ccccc3n(Cc3ccc([N+](=O)[O-])cc3)c2=O)cc1 [Compound 15, N-(3-Methoxypropyl)-4-((1-(4-nitrobenzyl)-2,4-dioxo-1,2-dihydroquinazolin-3(4H)-yl)methyl)benzamide] | 5.6 | viral titer reduction at 10 µM (RSV; compound at 10 µM): 5.6 ^f log; EC50 (hRSV strain Long; human respiratory syncytial virus, RSV CPE, as given in abstract): 300 to 500 nM |
| 1300 ± 200 | COCCCNC(=O)c1ccc(Cn2c(=O)c3ccccc3n(Cc3ccc(C#N)cc3)c2=O)cc1 [Compound 17, 4-((1-(4-Cyanobenzyl)-2,4-dioxo-1,2-dihydroquinazolin-3(4H)-yl)methyl)-N-(3-methoxypropyl)benzamide] | 4.2 | – |
| > 50000 | COCCCNC(=O)c1ccc(Cn2c(=O)c3ccccc3n(Cc3ccccc3Br)c2=O)cc1 [Compound 8, 4-((1-(2-Bromobenzyl)-2,4-dioxo-1,2-dihydroquinazolin-3(4H)-yl)methyl)-N-(3-methoxypropyl)benzamide] | – | – |
| 500 ± 60 | COc1cc(NC(=O)c2ccc(Cn3c(=O)c4ccccc4n(Cc4ccc(C(C)C)cc4)c3=O)cc2)ccn1 [Compound 50, 4-((1-(4-Isopropylbenzyl)-2,4-dioxo-1,2-dihydroquinazolin-3(4H)-yl)methyl)-N-(2-methoxypyridin-4-yl)benzamide] | – | – |
| 1300 ± 50 | O=C(NCC1COC1)c1ccc(Cn2c(=O)c3ccccc3n(Cc3ccc([N+](=O)[O-])cc3)c2=O)cc1 [Compound 43, 4-((1-(4-Nitrobenzyl)-2,4-dioxo-1,2-dihydroquinazolin-3(4H)-yl)-methyl)-N-(oxetan-3-ylmethyl)benzamide] | > 6.2 | increase in capacity to reduce viral titer over hit 2 (RSV; 10 µM): ≥ 2 log |
| > 50000 | Cc1ccc(Cn2c(=O)n(Cc3ccc(C(=O)Nc4ccccc4)cc3)c(=O)c3ccccc32)cc1 [Compound 38, 4-((1-(4-Methylbenzyl)-2,4-dioxo-1,2-dihydroquinazolin-3(4H)-yl)methyl)-N-phenylbenzamide] | – | – |
| – | COCCCNC(=O)c1ccc(Cn2c(Cc3cccc(C(C)C)c3)nc3ccccc3c2=O)cc1 [Compound 51, 4-((2-(3-Isopropylbenzyl)-4-oxoquinazolin-3(4H)-yl)methyl)-N-(3-methoxypropyl) benzamide] | – | EC50 (hRSV strain Long; [2]): > 50000 nM |
| 1000 ± 50 | CCc1ccc(Cn2c(=O)n(Cc3ccc(C(=O)NCCCOC)cc3)c(=O)c3ccccc32)cc1 [Compound 18, 4-((1-(4-Ethylbenzyl)-2,4-dioxo-1,2-dihydroquinazolin-3(4H)-yl)-methyl)-N-(3-methoxypropyl)benzamide] | 5.9 | – |
| 800 ± 50 | COCCCCNC(=O)c1ccc(Cn2c(=O)c3ccccc3n(Cc3ccc(C)cc3)c2=O)cc1 [Compound 27, N-(4-Methoxybutyl)-4-((1-(4-methylbenzyl)-2,4-dioxo-1,2-dihydroquinazolin-3(4H)-yl)methyl)benzamide] | 2.1 | – |
| 6700 ± 1900 | COCCCNC(=O)c1ccc(Cn2c(=O)c3ccccc3n(Cc3ccc(Cl)cc3)c2=O)cc1 [Compound 13, 4-((1-(4-Chlorobenzyl)-2,4-dioxo-1,2-dihydroquinazolin-3(4H)-yl)methyl)-N-(3-methoxypropyl)benzamide] | 3.1 | – |
| > 50000 | Cc1ccc(Cn2c(=O)n(Cc3ccc(C(=O)N(C)C)cc3)c(=O)c3ccccc32)cc1 [Compound 35, N,N-Dimethyl-4-((1-(4-methylbenzyl)-2,4-dioxo-1,2-dihydroquinazolin-3(4H)-yl)methyl)benzamide] | – | – |
| 400 ± 10 | CC(C)c1ccc(Cn2c(=O)n(Cc3ccc(C(=O)NCC4COC4)cc3)c(=O)c3ccccc32)cc1 [Compound 44, 4-((1-(4-Isopropylbenzyl)-2,4-dioxo-1,2-dihydroquinazolin-3(4H)-yl)methyl)-N-(oxetan-3-ylmethyl)benzamide] | 5.8 | – |
| > 50000 | Cc1ccc(Cn2c(=O)n(Cc3ccc(C(=O)N4CCOCC4)cc3)c(=O)c3ccccc32)cc1 [Compound 31, 1-(4-Methylbenzyl)-3-(4-(morpholine-4-carbonyl)benzyl)-quinazoline-2,4(1H,3H)-dione] | – | – |
| > 50000 | COCCCNC(=O)c1ccc(Cn2c(Cc3ccc(C(C)C)cc3)nc3ccccc3c2=O)cc1 [Compound 52, 4-((2-(4-Isopropylbenzyl)-4-oxoquinazolin-3(4H)-yl)methyl)-N-(3-methoxypropyl)benzamide] | – | – |

| EC50 (hRSV strain Long; [1]) [nM] | SMILES | log reduction at 10 µM (RSV) | other results |
| --- | --- | --- | --- |
| 2200 ± 900 | CNC(=O)c1ccc(Cn2c(=O)c3ccccc3n(Cc3ccc(C)cc3)c2=O)cc1 [Compound 34, N-Methyl-4-((1-(4-methylbenzyl)-2,4-dioxo-1,2-dihydroquinazolin-3(4H)-yl)methyl)benzamide] | – | – |
| 2140 | COCCCNC(=O)c1ccc(Cn2c(=O)c3ccccc3n(Cc3ccc(C)cc3)c2=O)cc1 [Compound 2, N-(3-Methoxypropyl)-4-((1-(4-methylbenzyl)-2,4-dioxo-1,2-dihydroquinazolin-3(4H)-yl)methyl)benzamide] | 4.2 | EC50 (hRSV strain Long; [2]): 2100 ± 500 nM |
| > 50000 | Cc1ccc(Cn2c(=O)n(Cc3ccc(C(=O)NC4CCCCC4)cc3)c(=O)c3ccccc32)cc1 [Compound 37, N-Cyclohexyl-4-((1-(4-methylbenzyl)-2,4-dioxo-1,2-dihydroquinazolin-3(4H)-yl)methyl)benzamide] | – | – |
| > 50000 | Cc1ccc(Cn2c(=O)n(Cc3ccc(C(=O)N4CCCCC4)cc3)c(=O)c3ccccc32)cc1 [Compound 33, 1-(4-Methylbenzyl)-3-(4-(piperidine-1-carbonyl)benzyl)-quinazoline-2,4(1H,3H)-dione] | – | – |
| 1600 ± 80 | CC(C)(C)c1ccc(Cn2c(=O)n(Cc3ccc(C(=O)NCC4COC4)cc3)c(=O)c3ccccc32)cc1 [Compound 47, 4-((1-(4-tert-Butylbenzyl)-2,4-dioxo-1,2-dihydroquinazolin-3(4H)-yl)methyl)-N-(oxetan-3-ylmethyl)benzamide] | 3.4 | – |
| > 50000 | COCCCNC(=O)c1ccc(Cn2c(=O)c3ccccc3n(Cc3ccccn3)c2=O)cc1 [Compound 22, 4-((2,4-Dioxo-1-(pyridin-2-ylmethyl)-1,2-dihydroquinazolin-3(4H)-yl)methyl)-N-(3-methoxypropyl)benzamide] | 0.1 | – |
| 1300 ± 100 | COCCCNC(=O)c1ccc(Cn2c(=O)c3ccccc3n(Cc3ccc(C(F)(F)F)cc3)c2=O)cc1 [Compound 16, 4-((2,4-Dioxo-1-(4-(trifluoromethyl)benzyl)-1,2-dihydroquinazolin-3(4H)-yl)methyl)-N-(3-methoxypropyl)benzamide] | 2.7 | – |
| 700 ± 100 | Cc1ccc(Cn2c(=O)n(Cc3ccc(C(=O)NCC4COC4)cc3)c(=O)c3ccccc32)cc1 [Compound 29, 4-((1-(4-Methylbenzyl)-2,4-dioxo-1,2-dihydroquinazolin-3(4H)-yl)methyl)-N-(oxetan-3-ylmethyl)benzamide] | 5.1 | – |
| 2200 ± 100 | COCCCNC(=O)c1ccc(Cn2c(=O)c3ccccc3n(Cc3cccc(Br)c3)c2=O)cc1 [Compound 9, 4-((1-(3-Bromobenzyl)-2,4-dioxo-1,2-dihydroquinazolin-3(4H)-yl)methyl)-N-(3-methoxypropyl)benzamide] | – | – |
| > 50000 | Cc1ccc(Cn2c(=O)n(Cc3ccc(C(=O)N4CCCC4)cc3)c(=O)c3ccccc32)cc1 [Compound 32, 1-(4-Methylbenzyl)-3-(4-(pyrrolidine-1-carbonyl)benzyl)-quinazoline-2,4(1H,3H)-dione] | – | – |
| 5100 ± 400 | COCCCNC(=O)c1ccc(Cn2c(=O)c3ccccc3n(Cc3ccc(F)cc3)c2=O)cc1 [Compound 12, 4-((1-(4-Fluorobenzyl)-2,4-dioxo-1,2-dihydroquinazolin-3(4H)-yl)-methyl)-N-(3-methoxypropyl)benzamide] | – | – |
| 9500 ± 400 | Cc1ccc(Cn2c(=O)n(Cc3ccc(C(=O)NCCCN(C)C)cc3)c(=O)c3ccccc32)cc1 [Compound 26, N-(3-(Dimethylamino)propyl)-4-((1-(4-methylbenzyl)-2,4-dioxo-1,2-dihydroquinazolin-3(4H)-yl)methyl)benzamide] | – | – |
| 2200 ± 1400 | COCCNC(=O)c1ccc(Cn2c(=O)c3ccccc3n(Cc3ccc(C)cc3)c2=O)cc1 [Compound 28, N-(2-Methoxyethyl)-4-((1-(4-methylbenzyl)-2,4-dioxo-1,2-dihydroquinazolin-3(4H)-yl)methyl)benzamide] | – | – |
| > 50000 | Cc1ccc(Cn2c(=O)n(Cc3ccc(C(=O)NCc4ccccc4)cc3)c(=O)c3ccccc32)cc1 [Compound 39, N-Benzyl-4-((1-(4-methylbenzyl)-2,4-dioxo-1,2-dihydroquinazolin-3(4H)-yl)methyl)benzamide] | – | – |
| > 50000 | Cc1ccc(Cn2c(=O)n(Cc3ccc(C(=O)NCc4ccco4)cc3)c(=O)c3ccccc32)cc1 [Compound 40, N-(Furan-2-ylmethyl)-4-((1-(4-methylbenzyl)-2,4-dioxo-1,2-dihydroquinazolin-3(4H)-yl)methyl)benzamide] | – | – |
| > 50000 | COCCCNC(=O)c1ccc(Cn2c(=O)c3ccccc3n(Cc3cc(C)on3)c2=O)cc1 [Compound 21, N-(3-Methoxypropyl)-4-((1-((5-methylisoxazol-3-yl)methyl)-2,4-dioxo-1,2 dihydroquinazolin-3(4H)-yl)methyl)benzamide] | – | – |
